Laboratory results published in PubChem BioAssay AID330 (DTP/NCI, 2004).
Where “and” joins values, the source holds several entries; their conditions need not be identical. Identical values can stand only once. Inconclusive results and toxic doses are left out.

System: P388 leukemia ip, CD2F1 mice, survival T/C
Assay: NCI In Vivo Anticancer Drug Screen. Data for tumor model P388 Leukemia (intraperitoneal) in CD2F1 (CDF1) mice
Settings: endpoint: median survival time, higher = longer survival
In short: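 Mice carrying the transplanted tumor received test compound or vehicle. Survival was recorded in each group, and the value is the treated-group measurement divided by that of the vehicle-treated control group.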

[1] = dose: 60.0 mg/kg/injection, schedule: Q01DX005 (ip), vehicle: saline with Tween-80
[2] = dose: 120.0 mg/kg/injection, schedule: Q01DX005 (ip), vehicle: saline with Tween-80
[3] = dose: 240.0 mg/kg/injection, schedule: Q01DX005 (ip), vehicle: saline with Tween-80
[4] = dose: 50.0 mg/kg/injection, schedule: Q01DX009 (ip), vehicle: saline with Tween-80
[5] = dose: 100.0 mg/kg/injection, schedule: Q01DX009 (ip), vehicle: saline with Tween-80
[6] = dose: 200.0 mg/kg/injection, schedule: Q01DX009 (ip), vehicle: saline with Tween-80
[7] = dose: 50.0 mg/kg/injection, schedule: Q04DX003 (ip), vehicle: Klucel (hydroxypropylcellulose) (HPC)
[8] = dose: 12.5 mg/kg/injection, schedule: Q01DX009 (ip), vehicle: saline with Tween-80
[9] = dose: 25.0 mg/kg/injection, schedule: Q01DX009 (ip), vehicle: saline with Tween-80
[10] = dose: 60.0 mg/kg/injection, schedule: Q01DX005 (ip), vehicle: Klucel (hydroxypropylcellulose) (HPC)
[11] = dose: 120.0 mg/kg/injection, schedule: Q01DX005 (ip), vehicle: Klucel (hydroxypropylcellulose) (HPC)
[12] = dose: 50.0 mg/kg/injection, schedule: Q01DX005 (ip), vehicle: Klucel (hydroxypropylcellulose) (HPC)
[13] = dose: 100.0 mg/kg/injection, schedule: Q01DX005 (ip), vehicle: Klucel (hydroxypropylcellulose) (HPC)
[14] = dose: 50.0 mg/kg/injection, schedule: Q01DX009 (ip), vehicle: saline
[15] = dose: 100.0 mg/kg/injection, schedule: Q01DX009 (ip), vehicle: saline
[16] = dose: 200.0 mg/kg/injection, schedule: Q01DX009 (ip), vehicle: saline

## COc1cc2cccnc2c2[nH]c(=O)c3c(c12)CCC3
dose: 100.0 mg/kg/injection, schedule: Q04DX003 (ip), vehicle: saline
  T/C: 101 % of control
dose: 200.0 mg/kg/injection, schedule: Q04DX003 (ip), vehicle: saline
  T/C: 99 % of control

## CCO/C(C)=N/n1c(C)nc2[nH]ncc2c1=O
[1]
  T/C: 99 % of control
[2]
  T/C: 106 % of control
[3]
  T/C: 106 % of control

## C=CC#N
[4]
  T/C: 99 % of control
[5]
  T/C: 95 % of control
[6]
  T/C: 90 % of control

## CC(=O)N(C)N=NCCCl
dose: 13.12 mg/kg/injection, schedule: Q01DX005 (ip), vehicle: saline with Tween-80
  T/C: 157 % of control
dose: 26.15 mg/kg/injection, schedule: Q01DX005 (ip), vehicle: saline with Tween-80
  T/C: 217 % of control
dose: 52.5 mg/kg/injection, schedule: Q01DX005 (ip), vehicle: saline with Tween-80
  T/C: 257 % of control
dose: 105.0 mg/kg/injection, schedule: Q01DX005 (ip), vehicle: saline with Tween-80
  T/C: 171 % of control

## COc1cc2c(c(OC)c1OC)CCC1C(=O)NN=C21 (stereo unspecified)
dose: 12.5 mg/kg/injection, schedule: Q04DX003 (ip), vehicle: Klucel (hydroxypropylcellulose) (HPC)
  T/C: 111 % of control
dose: 25.0 mg/kg/injection, schedule: Q04DX003 (ip), vehicle: Klucel (hydroxypropylcellulose) (HPC)
  T/C: 104 % of control
[7]
  T/C: 111 % of control

## O=C1C2=C(Nc3cc([N+](=O)[O-])ccc3N2)OC1c1c[nH]c2ccc(COc3ccccc3)cc12 (stereo unspecified)
[1]
  T/C: 93 % of control
[2]
  T/C: 94 % of control

## COc1cc2c3c(cccc3c1)C(=O)N(CCN1CCCC1)C2=O
dose: 17.3 mg/kg/injection, schedule: Q01DX009 (ip), vehicle: saline with Tween-80
  T/C: 112 % of control
dose: 34.7 mg/kg/injection, schedule: Q01DX009 (ip), vehicle: saline with Tween-80
  T/C: 116 % of control
[7]
  T/C: 100 % of control
dose: 69.3 mg/kg/injection, schedule: Q01DX009 (ip), vehicle: saline with Tween-80
  T/C: 116 % of control
dose: 100.0 mg/kg/injection, schedule: Q04DX003 (ip), vehicle: Klucel (hydroxypropylcellulose) (HPC)
  T/C: 101 % of control
dose: 200.0 mg/kg/injection, schedule: Q04DX003 (ip), vehicle: Klucel (hydroxypropylcellulose) (HPC)
  T/C: 100 % of control

## COc1cccc(CN2CCCN(/N=C/c3c4c(O)c5c(O)c(C)c6c(c5c3O)C(=O)C(C)(O/C=C/C(OC)C(C)C(OC(C)=O)C(C)C(O)C(C)C(O)C(C)/C=C/C=C(/C)C(=O)N4)O6)CC2)c1 (stereo unspecified)
[8]
  T/C: 108 % of control
[9]
  T/C: 109 % of control
[4]
  T/C: 103 % of control and 108 % of control
[5]
  T/C: 115 % of control

## S=C(Nc1cc(Cl)c(Cl)cc1Cl)SCc1ccccc1
dose: 50.0 mg/kg/injection, schedule: Q01DX009 (ip), vehicle: suspension in saline
  T/C: 93 % of control
dose: 100.0 mg/kg/injection, schedule: Q01DX009 (ip), vehicle: suspension in saline
  T/C: 93 % of control

## CC(/C=C/c1ccccc1)=N\NC(=O)c1ccccc1O
[10]
  T/C: 93 % of control
[11]
  T/C: 95 % of control
dose: 240.0 mg/kg/injection, schedule: Q01DX005 (ip), vehicle: Klucel (hydroxypropylcellulose) (HPC)
  T/C: 89 % of control

## COC(=O)C1=C(C(=O)OC)C2(c3ccccc3-c3ccccc32)C2C=CC=NN12 (stereo unspecified)
[12]
  T/C: 100 % of control
[13]
  T/C: 103 % of control
dose: 200.0 mg/kg/injection, schedule: Q01DX005 (ip), vehicle: Klucel (hydroxypropylcellulose) (HPC)
  T/C: 100 % of control

## CCN(CC)CCCC(C)Nc1c2ccc(Cl)cc2nc2cc(N=Nc3cccc4ccccc34)c(OC)cc12 (stereo unspecified)
dose: 25.0 mg/kg/injection, schedule: Q04DX003 (ip), vehicle: saline with Tween-80
  T/C: 92 % of control
dose: 50.0 mg/kg/injection, schedule: Q04DX003 (ip), vehicle: saline with Tween-80
  T/C: 92 % of control
dose: 100.0 mg/kg/injection, schedule: Q04DX003 (ip), vehicle: saline with Tween-80
  T/C: 118 % of control

## CCNC(=NC)c1ccc(NC(=O)c2ccc(C(=O)Nc3ccc(C(=NC)NCC)cc3)cc2)cc1
dose: 1.5 mg/kg/injection, schedule: Q04DX003 (ip), vehicle: saline with Tween-80
  T/C: 95 % of control
dose: 3.0 mg/kg/injection, schedule: Q01DX009 (ip), vehicle: saline with Tween-80
  T/C: 172 % of control
dose: 3.0 mg/kg/injection, schedule: Q04DX003 (ip), vehicle: saline with Tween-80
  T/C: 100 % of control
dose: 6.0 mg/kg/injection, schedule: Q04DX003 (ip), vehicle: saline with Tween-80
  T/C: 109 % of control

## O=C(CCCc1ccc(N(CCCl)CCCl)cc1)OCCOc1ccccc1
[8]
  T/C: 155 % of control
[9]
  T/C: 223 % of control
[4]
  T/C: 174 % of control and 200 % of control

## COc1ccc2c(c1)CC1c3c(cc4c(c3-2)OCO4)CCN1C (stereo unspecified)
dose: 30.0 mg/kg/injection, schedule: Q01DX005 (ip), vehicle: Klucel (hydroxypropylcellulose) (HPC)
  T/C: 93 % of control
[10]
  T/C: 90 % of control
[11]
  T/C: 90 % of control

## OC1CC2CC1CC2O (stereo unspecified)
[14]
  T/C: 101 % of control
[15]
  T/C: 98 % of control
[16]
  T/C: 104 % of control

## O=c1[nH]c(O)c(N=Nc2ccc([N+](=O)[O-])cc2[N+](=O)[O-])c(=O)[nH]1
[9]
  T/C: 113 % of control
[4]
  T/C: 102 % of control (2×) and 114 % of control
[5]
  T/C: 103 % of control and 112 % of control
[6]
  T/C: 102 % of control and 111 % of control

## Brc1ccc(/C=C/c2ccnnc2)cc1
[14]
  T/C: 93 % of control
[15]
  T/C: 94 % of control
[16]
  T/C: 100 % of control

## CO/C1=C\C(C)=C\C(C)C(O)C(C)C/C(C)=C/C=C/C(OC)C(C(C)C(O)C(C)C2(O)CC(O)C(C)C(C(C)C)O2)OC1=O (stereo unspecified)
dose: 1.25 mg/kg/injection, schedule: Q01DX005 (ip), vehicle: other
  T/C: 104 % of control
dose: 2.5 mg/kg/injection, schedule: Q01DX005 (ip), vehicle: other
  T/C: 104 % of control
dose: 5.0 mg/kg/injection, schedule: Q01DX005 (ip), vehicle: other
  T/C: 113 % of control

## Cc1nn(-c2ccccc2)c2c1C(=O)CC(C)O2 (stereo unspecified)
[10]
  T/C: 93 % of control
[11]
  T/C: 91 % of control

## Nc1nc(N)c2nc(Sc3ccc(F)cc3)c(N)nc2n1
dose: 25.0 mg/kg/injection, schedule: Q01DX005 (ip), vehicle: Klucel (hydroxypropylcellulose) (HPC)
  T/C: 97 % of control
[12]
  T/C: 94 % of control
[13]
  T/C: 88 % of control

## C1=C2COCOC3CCN(C1)C23 (stereo unspecified)
dose: 34.32 mg/kg/injection, schedule: Q01DX005 (ip), vehicle: saline
  T/C: 101 % of control
dose: 68.64 mg/kg/injection, schedule: Q01DX005 (ip), vehicle: saline
  T/C: 107 % of control
dose: 137.28 mg/kg/injection, schedule: Q01DX005 (ip), vehicle: saline
  T/C: 108 % of control

## CCOc1ccc(N2C(=O)C(=O)C(C#N)(c3nc4ccccc4o3)C(=O)C2=O)cc1
[1]
  T/C: 98 % of control
[2]
  T/C: 104 % of control
[3]
  T/C: 105 % of control

## Cc1c(N)nc(C(CC(N)=O)NCC(N)C(N)=O)nc1C(=O)NC(C(=O)NC(C)C(O)CC(=O)NC(C(=O)NC(OC1OC(C)C(N)C(O)C1O)C(O)c1nc(-c2nc(C(=O)NCCCC(N)CC(=O)NCCCNCCCCN)cs2)cs1)C(C)O)C(OC1OC(CO)C(O)C(O)C1OC1OC(CO)C(O)C(OC(N)=O)C1O)c1cnc[nH]1 (stereo unspecified)
dose: 0.5 mg/kg/injection, schedule: Q01DX009 (ip), vehicle: water
  T/C: 106 % of control
dose: 0.8 mg/kg/injection, schedule: Q01DX009 (ip), vehicle: water
  T/C: 113 % of control and 119 % of control
dose: 1.0 mg/kg/injection, schedule: Q01DX009 (ip), vehicle: water
  T/C: 113 % of control
dose: 1.3 mg/kg/injection, schedule: Q01DX009 (ip), vehicle: water
  T/C: 113 % of control and 97 % of control
dose: 2.0 mg/kg/injection, schedule: Q01DX009 (ip), vehicle: water
  T/C: 113 % of control
dose: 2.2 mg/kg/injection, schedule: Q01DX009 (ip), vehicle: water
  T/C: 111 % of control and 87 % of control
dose: 3.6 mg/kg/injection, schedule: Q01DX009 (ip), vehicle: water
  T/C: 92 % of control

## NC(=S)N/N=C/c1ccncc1
[9]
  T/C: 108 % of control
[4]
  T/C: 98 % of control
[5]
  T/C: 101 % of control
[6]
  T/C: 92 % of control

## C=C(CCCC)CNCCOC(=O)c1ccc([N+](=O)[O-])cc1
dose: 12.5 mg/kg/injection, schedule: Q04DX003 (ip), vehicle: saline
  T/C: 104 % of control
dose: 25.0 mg/kg/injection, schedule: Q04DX003 (ip), vehicle: saline
  T/C: 104 % of control
dose: 50.0 mg/kg/injection, schedule: Q04DX003 (ip), vehicle: saline
  T/C: 104 % of control
